The assay addresses T1, BRM (Homo sapiens, UniProt P51531).
T1 construct: In-Cell Western Screen of BRM Degradation in SW1573 Cells; endogenous in cells; host or cells: SW1573
In words: In-cell Western screen of BRM degradation in SW1573 cells (Dmax and DC50). The class given is cell-based. Particulars: BRM degradation, SW1573 cells, Table 2D; for DC50: read-out: *DC50; for Dmax: read-out: **Dmax (%) (% degraded). The gist of the method:
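BRM levels were read by LI-COR in-cell Western after two-channel (800/680 nm) immunostaining of fixed, Triton-permeabilised SW1573 cells.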

This is an account of results in patent publication US12539292B2, “BRM targeting compounds and associated methods of use” (Arvinas Operations, Inc., priority 2018, dated 2026).

T1 sequence (P51531 whole entry): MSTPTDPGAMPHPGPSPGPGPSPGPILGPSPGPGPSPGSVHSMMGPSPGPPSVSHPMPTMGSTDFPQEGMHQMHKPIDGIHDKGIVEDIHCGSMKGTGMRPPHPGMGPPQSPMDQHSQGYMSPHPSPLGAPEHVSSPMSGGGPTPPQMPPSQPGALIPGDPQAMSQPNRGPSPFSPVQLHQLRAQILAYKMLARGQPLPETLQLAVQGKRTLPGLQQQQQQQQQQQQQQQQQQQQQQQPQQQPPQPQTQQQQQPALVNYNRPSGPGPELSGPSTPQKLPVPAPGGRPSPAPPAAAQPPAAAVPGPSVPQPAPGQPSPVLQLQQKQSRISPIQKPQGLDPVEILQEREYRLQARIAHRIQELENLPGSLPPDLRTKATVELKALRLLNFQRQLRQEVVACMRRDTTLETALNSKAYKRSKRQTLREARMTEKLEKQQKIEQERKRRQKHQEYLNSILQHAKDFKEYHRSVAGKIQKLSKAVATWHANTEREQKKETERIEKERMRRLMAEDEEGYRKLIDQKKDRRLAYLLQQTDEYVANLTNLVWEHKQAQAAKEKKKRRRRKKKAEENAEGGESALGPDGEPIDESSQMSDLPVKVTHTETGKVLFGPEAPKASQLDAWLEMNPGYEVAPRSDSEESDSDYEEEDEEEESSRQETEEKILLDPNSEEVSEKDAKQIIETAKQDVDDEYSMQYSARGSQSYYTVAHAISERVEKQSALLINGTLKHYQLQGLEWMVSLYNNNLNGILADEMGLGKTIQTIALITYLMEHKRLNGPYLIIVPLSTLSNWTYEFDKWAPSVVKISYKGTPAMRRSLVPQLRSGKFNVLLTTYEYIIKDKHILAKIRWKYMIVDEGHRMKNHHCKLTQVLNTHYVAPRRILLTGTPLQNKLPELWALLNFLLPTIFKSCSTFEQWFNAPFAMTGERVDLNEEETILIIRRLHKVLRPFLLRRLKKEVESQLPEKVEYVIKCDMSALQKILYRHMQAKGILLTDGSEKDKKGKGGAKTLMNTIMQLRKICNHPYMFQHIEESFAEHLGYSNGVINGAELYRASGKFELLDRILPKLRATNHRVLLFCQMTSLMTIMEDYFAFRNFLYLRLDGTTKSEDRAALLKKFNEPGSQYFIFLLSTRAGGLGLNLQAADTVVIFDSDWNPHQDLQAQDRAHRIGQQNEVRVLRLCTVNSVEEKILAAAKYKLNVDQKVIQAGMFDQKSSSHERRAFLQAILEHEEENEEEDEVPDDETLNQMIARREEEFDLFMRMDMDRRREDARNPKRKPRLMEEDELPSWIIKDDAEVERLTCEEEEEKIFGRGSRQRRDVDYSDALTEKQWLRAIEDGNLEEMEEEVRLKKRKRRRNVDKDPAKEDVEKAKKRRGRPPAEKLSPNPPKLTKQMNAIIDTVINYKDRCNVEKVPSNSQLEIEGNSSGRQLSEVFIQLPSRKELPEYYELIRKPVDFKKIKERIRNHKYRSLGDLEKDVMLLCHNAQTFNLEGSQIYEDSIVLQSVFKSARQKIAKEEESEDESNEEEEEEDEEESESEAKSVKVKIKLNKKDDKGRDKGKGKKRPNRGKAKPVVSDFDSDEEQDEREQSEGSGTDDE

A word on the DC50: it is the concentration at which degradation of the target reaches its halfway point. For the compound `Cc1ncsc1-c1cc(F)c([C@H](C)NC(=O)[C@@H]2C[C@@H](O)CN2C(=O)[C@H](c2cc(OCCN3CCC(O[C@H]4C[C@H](Oc5cc(N6C7CCC6CN(c6cc(-c8ccccc8O)nnc6N)C7)ccn5)C4)CC3)no2)C(C)C)cn1` [compound 540, (2S,4R)-1-((2S)-2-(3-(2-(4-((1r,3S)-3-((4-(3-(3-amino-6-(2-hydroxyphenyl)pyridazin-4-yl)-3,8-diazabicyclo[3.2.1]octan-8-yl)pyridin-2-yl)oxy)cyclobutoxy)piperidin-1-yl)ethoxy)isoxazol-5-yl)-3-methylbutanoyl)-N-((S)-1-(4-fluoro-6-(4-methylthiazol-5-yl)pyridin-3-yl)ethyl)-4-hydroxypyrrolidine-2-carboxamide], the DC50 was greater than 30 nM.
Regarding `Cc1ncsc1-c1cc(F)c([C@@H](C)NC(=O)[C@@H]2C[C@@H](O)CN2C(=O)[C@@H](c2cc(OCCN3CCC(O[C@H]4C[C@H](Oc5cc(N6C7CCC6CN(c6cc(-c8ccccc8O)nnc6N)C7)ccn5)C4)CC3)no2)C(C)C)cn1` [compound 541, (2S,4R)-1-((2R)-2-(3-(2-(4-((1r,3R)-3-((4-(3-(3-amino-6-(2-hydroxyphenyl)pyridazin-4-yl)-3,8-diazabicyclo[3.2.1]octan-8-yl)pyridin-2-yl)oxy)cyclobutoxy)piperidin-1-yl)ethoxy)isoxazol-5-yl)-3-methylbutanoyl)-N-((R)-1-(4-fluoro-6-(4-methylthiazol-5-yl)pyridin-3-yl)ethyl)-4-hydroxypyrrolidine-2-carboxamide], the half-maximal degradation concentration (DC50) was greater than 30 nM.
The same measure, in the same setting: then `Cc1ncsc1-c1cc(F)c([C@@H](C)NC(=O)[C@@H]2C[C@@H](O)CN2C(=O)[C@H](c2cc(OCCN3CCC(O[C@H]4C[C@H](Oc5cc(N6C7CCC6CN(c6cc(-c8ccccc8O)nnc6N)C7)ccn5)C4)CC3)no2)C(C)C)cn1` [compound 542, (2S,4R)-1-((2S)-2-(3-(2-(4-((1r,3S)-3-((4-(3-(3-amino-6-(2-hydroxyphenyl)pyridazin-4-yl)-3,8-diazabicyclo[3.2.1]octan-8-yl)pyridin-2-yl)oxy)cyclobutoxy)piperidin-1-yl)ethoxy)isoxazol-5-yl)-3-methylbutanoyl)-N-((R)-1-(4-fluoro-6-(4-methylthiazol-5-yl)pyridin-3-yl)ethyl)-4-hydroxypyrrolidine-2-carboxamide], with greater than 30 nM.
The Dmax is the largest share of the target that was removed. On to `Cc1ncsc1-c1ccc([C@H](C)NC(=O)[C@@H]2C[C@@H](O)CN2C(=O)[C@@H](c2cc(OCC[C@H]3CCN(C[C@H]4C[C@H](Oc5cc(N6C7CCC6CN(c6cc(-c8ccccc8O)nnc6N)C7)ccn5)C4)[C@@H](C)C3)no2)C(C)C)cc1` [compound 548, (2S,4R)-1-((2R)-2-(3-(2-((2S,4S)-1-(((1r,3S)-3-((4-(3-(3-amino-6-(2-hydroxyphenyl)pyridazin-4-yl)-3,8-diazabicyclo[3.2.1]octan-8-yl)pyridin-2-yl)oxy)cyclobutyl)methyl)-2-methylpiperidin-4-yl)ethoxy)isoxazol-5-yl)-3-methylbutanoyl)-4-hydroxy-N-((S)-1-(4-(4-methylthiazol-5-yl)phenyl)ethyl)pyrrolidine-2-carboxamide], for which the Dmax is greater than 75% and the DC50 is less than 2.5 nM.
Take `Cc1ncsc1-c1ccc([C@H](C)NC(=O)[C@@H]2C[C@@H](O)CN2C(=O)[C@H](c2cc(N3CC(COCCOc4cc(N5C6CCC5CN(c5cc(-c7ccccc7O)nnc5N)C6)ccn4)C3)no2)C(C)C)cc1` [compound 549, (2S,4R)-1-((2S)-2-(3-(3-((2-((4-(3-(3-amino-6-(2-hydroxyphenyl)pyridazin-4-yl)-3,8-diazabicyclo[3.2.1]octan-8-yl)pyridin-2-yl)oxy)ethoxy)methyl)azetidin-1-yl)isoxazol-5-yl)-3-methylbutanoyl)-4-hydroxy-N-((S)-1-(4-(4-methylthiazol-5-yl)phenyl)ethyl)pyrrolidine-2-carboxamide]: the DC50 is greater than 30 nM.
Regarding `Cc1ncsc1-c1ccc([C@H](C)NC(=O)[C@@H]2C[C@@H](O)CN2C(=O)[C@@H](c2cc(N3CC(COCCOc4cc(N5C6CCC5CN(c5cc(-c7ccccc7O)nnc5N)C6)ccn4)C3)no2)C(C)C)cc1` [compound 550, (2S,4R)-1-((2R)-2-(3-(3-((2-((4-(3-(3-amino-6-(2-hydroxyphenyl)pyridazin-4-yl)-3,8-diazabicyclo[3.2.1]octan-8-yl)pyridin-2-yl)oxy)ethoxy)methyl)azetidin-1-yl)isoxazol-5-yl)-3-methylbutanoyl)-4-hydroxy-N-((S)-1-(4-(4-methylthiazol-5-yl)phenyl)ethyl)pyrrolidine-2-carboxamide], the Dmax is greater than 75% and the DC50 is less than 2.5 nM.
The corresponding values for `Cc1ncsc1-c1cc(F)c([C@H](C)NC(=O)[C@@H]2C[C@@H](O)CN2C(=O)[C@H](c2cc(OCCC3CCN(C[C@H]4C[C@H](Oc5cc(N6C7CCC6CN(c6cc(-c8ccccc8O)nnc6N)C7)ccn5)C4)CC3)no2)C(C)C)cc1F` [compound 551, (2S,4R)-1-((2S)-2-(3-(2-(1-(((1r,3S)-3-((4-(3-(3-amino-6-(2-hydroxyphenyl)pyridazin-4-yl)-3,8-diazabicyclo[3.2.1]octan-8-yl)pyridin-2-yl)oxy)cyclobutyl)methyl)piperidin-4-yl)ethoxy)isoxazol-5-yl)-3-methylbutanoyl)-N-((S)-1-(2,5-difluoro-4-(4-methylthiazol-5-yl)phenyl)ethyl)-4-hydroxypyrrolidine-2-carboxamide] are greater than 75% and less than 2.5 nM.
Take `Cc1ncsc1-c1cc(F)c([C@H](C)NC(=O)[C@@H]2C[C@@H](O)CN2C(=O)[C@@H](c2cc(OCCC3CCN(C[C@H]4C[C@H](Oc5cc(N6C7CCC6CN(c6cc(-c8ccccc8O)nnc6N)C7)ccn5)C4)CC3)no2)C(C)C)cc1F` [compound 552, (2S,4R)-1-((2R)-2-(3-(2-(1-(((1r,3R)-3-((4-(3-(3-amino-6-(2-hydroxyphenyl)pyridazin-4-yl)-3,8-diazabicyclo[3.2.1]octan-8-yl)pyridin-2-yl)oxy)cyclobutyl)methyl)piperidin-4-yl)ethoxy)isoxazol-5-yl)-3-methylbutanoyl)-N-((S)-1-(2,5-difluoro-4-(4-methylthiazol-5-yl)phenyl)ethyl)-4-hydroxypyrrolidine-2-carboxamide]: the Dmax is greater than 75% and the DC50 is less than 2.5 nM.
The corresponding values for `Cc1nccn1-c1ccc([C@H](C)NC(=O)[C@@H]2C[C@@H](O)CN2C(=O)[C@@H](c2cc(OCCN3CCN(CCOc4cc(N5C6CCC5CN(c5cc(-c7ccccc7O)nnc5N)C6)ccn4)C[C@@H]3C)no2)C(C)C)cc1` [compound 553, (2S,4R)-1-((2R)-2-(3-(2-((2S)-4-(2-((4-(3-(3-amino-6-(2-hydroxyphenyl)pyridazin-4-yl)-3,8-diazabicyclo[3.2.1]octan-8-yl)pyridin-2-yl)oxy)ethyl)-2-methylpiperazin-1-yl)ethoxy)isoxazol-5-yl)-3-methylbutanoyl)-4-hydroxy-N-((S)-1-(4-(2-methyl-1H-imidazol-1-yl)phenyl)ethyl) pyrrolidine-2-carboxamide] are greater than 75% and less than 2.5 nM.
